Data published in US9586994B2, “CD44V6-derived peptides for treating breast cancer” (KARLSRUHER INSTITUT FÜR TECHNOLOGIE, priority 2012, dated 2017).

Legend:
[1] = tested on: L3.6pl cells; assay: Human VEGF in cell culture supernatant of L3.6pl cells (Quantikine immunoassay); assay type: cell-based; conditions: peptide 200 ng/ml in the culture medium, 5 days
Procedure: Determination of human HGF and VEGF levels in cell culture medium of L3.6pl cells were performed using the Quantikine Human HGF Immunoassay and Quantikine Human VEGF Immunoassay from Roche (Mannheim, GER) and R&D Systems (Wiesbaden, Germany) For this purpose 3×10^6 cells were cultured for 5 days in a 15 cm plate in the presence of the respective peptides as indicated. The supernatant by centrifugation (20 ml) was centrifuged (1200 rpm) and the assay was performed according to manufacturer's instructions.

[2] = biological target: T1, CD44v6 (Homo sapiens, UniProt P16070); assay: Peptide blocking of EGF-induced Erk phosphorylation in MCF10A cells (Western blot); assay type: cell-based; conditions: MCF10 cells, serum-starved; peptide 100 ng/ml; EGF 20 ng/ml
T1 construct: endogenous in cells; host or cells: MCF7; MCF10A
Procedure: 3×10^5 were seeded per well of a 6-well plate and serum-starved for 24 hours. Afterwards the medium inside of each well was reduced to 1 ml and the respective peptide (v6 (both peptides of SEQ ID No.: 2 and 6 were tested), or ctrl peptide) was added at a concentration of 100 ng/ml. The cells then were incubated together with the peptide at 37° C. for 5 mins. Ligand concentration for all peptide blocking experiments was 20 ng/ml.
To assay protein expression via Western blot cells were washed 1× with PBS and afterwards lysed in 2×Laemmli sample buffer (160 mM Tris-HCl pH 6.8, 4% SDS, 16% glycerol, 0.1M DTT, 0.01% bromphenol blue). The sample was sheared through a 26 gauge needle. In succession the lysates were boiled for 5 mins at 99° C. in order to denature the proteins in the sample and then spun down at 10 000 rmp for 1 min Eventually the samples were loaded onto an SDS-PAGE gel.
To test whether CD44v6 acts as a co-receptor in MCF7 or MCF10A cells, a peptide blocking experiment using peptides of SEQ ID NO: 6 was conducted. The cells were serum-starved for 24 h and then pre-incubated with a v6 peptide or an unspecific control peptide. Then, the cells were induced with EGF or HGF as a control. As a read-out for ErbB-activation, the phosphorylation of the Erk-kinase was used.

[3] = tested on: CD44v6; assay: HGF-induced activation of Met and Erk in HeLa cells (Western blot); assay type: cell-based, human
Procedure: FIG. 28: A: Activation of Met and signal transduction induced by HGF depends on CD44v6 in L3.6pl cells. L3.6pl cells were treated with the human v6 peptide (human v6 14mer) or the rat v6 peptide as control prior to induction with 10 ng/ml HGF. Activation of Met and ERK was determined in western blot. The numbers refer to the fold induction. The experiment was repeated at least 5 times. B: Activation of c-Met and signal transduction induced by HGF depends on CD44v6 HeLa cells. Starved HeLa cells respectively HT29 cells were incubated with the v6 peptide (human v6 14mer) or a control peptide for 10 minutes at 37° C. and then induced with 25 ng/ml of HGF for the indicated time points. Cells were then either lysed and the lysates were subjected to Western Blot analysis for phospho-Met and Met. C: Activation of c-Met and signal transduction induced by HGF depends on CD44v6 in HT29 cells. HGF-induced c-Met and Erk phosphorylation in HT29 was determined as described above using phospho-specific antibodies. […]
The contribution of CD44v6 to Met signaling in the human epithelial pancreatic cancer cells L3.6pl (derived from Colo 357), the cervix carcinoma cells HeLa and the colon cancer cells HT29 were analysed using the CD44v6 peptide (v6 14mer; v6 5mer tested as well, data not shown).

[4] = tested on: L3.6pl cells; assay: Human orthotopic pancreatic cancer model, L3.6pl cells in nude mice, treatment from day 7; assay type: in vivo, mouse; conditions: nude mice
Summary of the method: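 L3.6pl pancreatic carcinoma cells (passage 24-26) were injected orthotopically into the pancreas of male nude mice. From day 7, groups of 15 received i.p. human v6 peptide or rat control peptide (20 μg, 14mer or 5mer), three times weekly for 21 days. Animals were killed two days after the last dose; tumors were analyzed by P-Met, Met, CD31 and caspase immunostaining.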

[5] = orthotopic L3.6pl, 20 μg i.p. three times per week

T1 sequence (P16070 21-742): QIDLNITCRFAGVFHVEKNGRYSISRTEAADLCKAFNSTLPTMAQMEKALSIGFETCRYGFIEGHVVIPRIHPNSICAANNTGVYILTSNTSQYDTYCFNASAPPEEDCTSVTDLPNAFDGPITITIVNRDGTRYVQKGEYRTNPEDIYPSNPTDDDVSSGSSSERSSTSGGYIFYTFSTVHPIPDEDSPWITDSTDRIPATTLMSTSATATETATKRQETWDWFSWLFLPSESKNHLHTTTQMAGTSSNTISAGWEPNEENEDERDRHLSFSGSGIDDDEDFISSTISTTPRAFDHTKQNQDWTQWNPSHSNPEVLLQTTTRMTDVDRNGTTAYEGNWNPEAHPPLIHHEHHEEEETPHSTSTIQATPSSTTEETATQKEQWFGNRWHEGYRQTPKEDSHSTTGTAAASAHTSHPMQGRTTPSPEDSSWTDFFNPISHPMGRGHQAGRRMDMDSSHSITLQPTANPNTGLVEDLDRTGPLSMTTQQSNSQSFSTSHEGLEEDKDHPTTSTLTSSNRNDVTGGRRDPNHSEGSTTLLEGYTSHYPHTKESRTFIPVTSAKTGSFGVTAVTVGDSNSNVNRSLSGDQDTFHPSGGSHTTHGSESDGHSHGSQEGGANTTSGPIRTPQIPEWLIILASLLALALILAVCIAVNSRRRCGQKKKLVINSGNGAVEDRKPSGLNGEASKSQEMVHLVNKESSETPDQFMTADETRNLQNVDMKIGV

EGF-induced activation of the ErbB receptors (Erk phosphorylation) [2]: could be blocked
Sequence: KEQWFGNRWHEGYR [SEQ ID NO: 6, human CD44v6 14mer peptide]
hVEGF secretion by L3.6pl cells [1]: can be blocked | HGF-induced activation of downstream target Erk ([3]; peptide before induction with HGF): able to prevent activation | HGF-induced activation of Met ([3]; starved, peptide 10 min 37° C., HGF 25 ng/ml): able to prevent activation | Tumor angiogenesis (CD31 staining, vessel number and vessel size) ([4]; orthotopic L3.6pl tumors): decreased angiogenesis as exemplified by a reduced vessel number and vessel size | Metastasis formation (liver) [4, 5]: completely inhibited metastasis formation within the liver | Outgrowth of the primary tumor in the pancreas [4, 5]: strongly repressed | Met activation in the tumor (phospho-Met immunofluorescence) ([4]; orthotopic L3.6pl, 20 μg i.p. three times per week for three weeks): completely repressed Met activation
